Holding throughout (format): biochemical
Test [1] deals with T1, EPX (eosinophil peroxidase) (Homo sapiens, UniProt P11678).
T1 construct: purchased Lee Biosolutions 342-60
T1 sequence (P11678 140-715): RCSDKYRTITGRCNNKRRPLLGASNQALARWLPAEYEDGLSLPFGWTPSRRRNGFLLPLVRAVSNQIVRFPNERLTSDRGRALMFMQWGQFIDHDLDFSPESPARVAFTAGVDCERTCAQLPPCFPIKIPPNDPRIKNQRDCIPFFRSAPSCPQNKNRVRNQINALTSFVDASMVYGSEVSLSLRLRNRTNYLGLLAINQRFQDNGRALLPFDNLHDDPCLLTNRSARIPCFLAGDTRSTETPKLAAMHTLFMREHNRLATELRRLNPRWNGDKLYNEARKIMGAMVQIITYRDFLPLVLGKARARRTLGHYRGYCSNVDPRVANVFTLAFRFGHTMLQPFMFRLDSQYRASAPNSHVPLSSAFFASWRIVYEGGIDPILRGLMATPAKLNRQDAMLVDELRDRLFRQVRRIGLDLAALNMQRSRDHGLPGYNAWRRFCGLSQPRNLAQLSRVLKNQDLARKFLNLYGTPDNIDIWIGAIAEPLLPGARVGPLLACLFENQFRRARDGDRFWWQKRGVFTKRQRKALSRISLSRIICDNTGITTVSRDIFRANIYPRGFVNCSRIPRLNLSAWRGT
Briefly: EPX bromination assay. The protocol:
(§1) [formula] where A=minimal Y value (activity level of inhibited sample), B=maximal Y value (activity level of uninhibited sample), C=Log IC50, D=Hill Slope, x=concentration of inhibitor. EPX Bromination Assay
EPX bromination activity was measured in 100 mM KPi (pH 7.4) by monitoring the H2O2 catalyzed formation of 3-bromo tyrosine from tyrosine and potassium bromide. A 50 μl mixture of 0.6 μM EPX (Lee Biosolutions Cat#342-60) was added to 100 nL inhibitor in 100% DMSO in a 384 well REMP plate. Enzyme and compound were preincubated for ten minutes at room temperature.
After the ten minute preincubation of enzyme and inhibitor, 25 μL of a mixture containing 400 μM tyrosine and 1200 μM potassium bromide was added to the plate containing enzyme and inhibitor, followed by the addition of 25 μl of 20 μM H2O2. The reaction was allowed to proceed for 15 minutes, at which time it was quenched with 10 μL of 20% TCA. The final concentrations of all components were 0.3 μM EPX, 100 μM tyrosine, […], 5 μM H2O2, 0.1% DMSO, 2.0% TCA.
IC50 values were determined by determining the peak areas of 3-bromotyrosine present at the end of the 15 minute reaction and fitting the data to:
[formula] where A=minimal Y value (activity level of inhibited sample), B=maximal Y value (activity level of uninhibited sample), C=Log IC50, D=Hill Slope, x=concentration of inhibitor.
Reversed-phase analysis was performed on a Waters Acquity Ultra Performance LC system using an Acquity UPLC BEH C18 […], 2.1×50 mm analytical column. The column was maintained at 60° C. Samples were eluted using a gradient of 0%-100% B over 2.5 minutes, followed by equilibration with 100% A for 1 minute where A consisted of 0.1% TFA and B consisted of 90% MeOH/0.1% TFA at a flow rate of 0.6 mL/min. The retention time of 3-bromo tyrosine was 1.22 min.

The target of test [2] is T2, myeloperoxidase (MPO) (Homo sapiens, UniProt P05164).
T2 sequence (P05164 49-745): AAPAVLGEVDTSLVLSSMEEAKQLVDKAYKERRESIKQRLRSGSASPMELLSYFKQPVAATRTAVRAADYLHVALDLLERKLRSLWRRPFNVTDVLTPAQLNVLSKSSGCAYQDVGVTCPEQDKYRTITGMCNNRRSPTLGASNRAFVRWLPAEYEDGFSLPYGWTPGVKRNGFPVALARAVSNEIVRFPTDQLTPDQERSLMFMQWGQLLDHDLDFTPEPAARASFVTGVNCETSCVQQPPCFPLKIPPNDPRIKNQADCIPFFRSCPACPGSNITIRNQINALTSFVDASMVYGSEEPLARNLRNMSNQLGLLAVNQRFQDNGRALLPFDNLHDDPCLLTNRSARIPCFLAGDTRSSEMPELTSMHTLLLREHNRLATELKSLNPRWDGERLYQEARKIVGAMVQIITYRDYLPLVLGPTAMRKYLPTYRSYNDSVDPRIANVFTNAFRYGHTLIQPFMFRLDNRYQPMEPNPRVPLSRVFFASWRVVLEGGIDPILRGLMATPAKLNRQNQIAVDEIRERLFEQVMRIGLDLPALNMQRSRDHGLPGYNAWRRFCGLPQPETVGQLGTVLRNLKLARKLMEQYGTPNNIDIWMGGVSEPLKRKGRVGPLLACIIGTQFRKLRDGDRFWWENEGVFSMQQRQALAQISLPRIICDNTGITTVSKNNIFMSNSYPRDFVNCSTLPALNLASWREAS
Description: MPO peroxidation assay (Amplex Red assay). The following applies: MPO peroxidation, potency range class; read-out: Amplex Red IC50. The method in brief:
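MPO (200 pM) with 40 nM H2O2 was preincubated 10 min at room temperature with inhibitor in 100 mM KPi pH 7.4. A mix of Amplex Red (200 μM) and H2O2 (10 mM) was then added and resorufin fluorescence read kinetically for 15 min. Slopes over 180–540 s gave % inhibition and IC50 via a four-parameter Hill fit.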

For test [3], the target named is T2, myeloperoxidase (MPO). Briefly: MPO chlorination assay (APF assay). Conditions: MPO chlorination, potency range class; read-out: APF IC50. The method, then: [formula] where A=minimal Y value (activity level of inhibited sample), B=maximal Y value (activity level of uninhibited sample), C=Log IC50, D=Hill Slope, x=concentration of inhibitor. MPO Chlorination Assay (APF Assay)
MPO chlorination activity was measured in 100 mM KPi (pH 7.4) by utilizing the non-fluorescent reagent Aminophenyl fluorescein (APF, Invitrogen catalog #A36003). APF is cleaved by (—OCl) to yield the fluorescent compound fluorescein. Reactions were carried out in 50 μL total volume by adding a 25 μL mixture of 200 pM myeloperoxidase and 120 mM NaCl to 100 nL inhibitor in 100% DMSO in a 384 well, non-binding surface clear bottom plate (CORNING® #3655). Enzyme, inhibitor, and chloride were preincubated for ten minutes at room temperature.
After the ten minute preincubation, 25 μL of an APF mixture containing […], 120 mM NaCl and 10 μM H2O2 was added to the plate using the internal dispensing system of a Hammatsu FDSS 6000. Kinetic determinations were carried out immediately on the FDSS 6000 (3 minute kinetic read, 1 read every second, ex: 485 nm, em: 535 nm). IC50 values for inhibitors were calculated by taking the slope of the linear portion of the kinetic measurement (20 seconds to ˜80-120 secs).
IC50 values were calculated by determining the slope of the linear portion of the kinetic trace ([…]), and using that calculated slope to determine % inhibition occurring at each concentration of inhibitor using the following equation:
as §1

As to `Nc1cc(OCc2cccc(OCc3ccccc3)c2)c2nn[nH]c2n1` [Example 2, 7-(3-(Benzyloxy)benzyloxy)-3H-[1,2,3]triazolo[4,5-b]pyridin-5-amine], the half-inhibitory concentration (IC50) (as a rule, the concentration that inhibits the measured activity by half) in test [1] was 80 nM; at myeloperoxidase (MPO) [2] it was 1 to 100 nM.
For `Nc1cc(OCc2cccc(OC3CC3)c2)c2nn[nH]c2n1` [Example 6, 7-(3-Cyclopropoxybenzyloxy)-3H-[1,2,3]triazolo[4,5-b]pyridin-5-amine], in that order: 10 nM and 1 to 100 nM.
Regarding `Nc1cc(OCc2cccc(-c3ncccn3)c2)c2nn[nH]c2n1` [Example 8, 7-(3-(Pyrimidin-2-yl)benzyloxy)-3H-[1,2,3]triazolo[4,5-b]pyridin-5-amine], the values for the IC50 (in test [1]; at myeloperoxidase (MPO) [2]) were 40 nM and 1 to 100 nM, respectively.
In the case of `Nc1cc(OCc2c(F)cccc2F)c2nn[nH]c2n1` [Example 54, 7-(2,6-Difluorobenzyloxy)-3H-[1,2,3]triazolo[4,5-b]pyridin-5-amine], the results for the IC50 (in test [1]; at myeloperoxidase (MPO) [2]) were 10 nM and 1 to 100 nM, respectively.
Consider `CC(C)n1cc(-c2ccc(COc3cc(N)nc4[nH]nnc34)c(OC(F)(F)F)c2)cn1` [Example 305, 7-((4-(1-isopropyl-1H-pyrazol-4-yl)-2-(trifluoromethoxy)benzyl)oxy)-3H-[1,2,3] triazolo[4,5-b]pyridin-5-amine], for which the IC50 lay in the range of 101 to 999 nM on myeloperoxidase (MPO) [3] and 1 to 100 nM on myeloperoxidase (MPO) [2].
The corresponding values for `COc1ncc(-c2cc(F)c(COc3cc(N)nc4[nH]nnc34)c(F)c2)cn1` [Example 334, 7-((2,6-difluoro-4-(2-methoxypyrimidin-5-yl)benzyl)oxy)-3H-[1,2,3]triazolo[4,5-b] pyridin-5-amine] are 101 to 999 nM and 1 to 100 nM.
The corresponding values for `Nc1cc(OCc2c(F)cc(-c3ccc(N4CCNCC4)nc3)cc2F)c2nn[nH]c2n1` [Example 336, 7-((2,6-difluoro-4-(6-(piperazin-1-yl)pyridin-3-yl)benzyl)oxy)-3H-[1,2,3]triazolo[4,5-b] pyridin-5-amine] are 1 to 100 nM and 1 to 100 nM.
For `Nc1cc(OCc2c(F)ccc(-c3cncc(C(=O)N4CCOCC4)c3)c2Cl)c2nn[nH]c2n1` [Example 345, (5-(3-(((5-amino-3H-[1,2,3]triazolo[4,5-b]pyridin-7-yl)oxy)methyl)-2-chloro-4-fluorophenyl)pyridin-3-yl)(morpholine) methanone], in that order: 1000 to 10000 nM and 101 to 999 nM.
